According to paper PMC12064818, “A general assay platform to study protein pharmacology using ligand-dependent structural dynamics” (Nature Communications, 2025):

Biological target: firefly luciferase (FLuc) (Photinus pyralis, UniProt P08659)
Test: Thermal shift profiles (Thermofluor assay), FLuc;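 as to Thermofluor FLuc, No ATP: normalized first derivative of fluorescence (dF/dT) at the stated temperature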
Type: binding
Parameters: unit of the concentration uncertain
Conditions: compound 100 (unit uncertain); for Thermofluor FLuc, ATP: ATP (2 (unit uncertain))

firefly luciferase (FLuc), sequence (P08659 whole entry): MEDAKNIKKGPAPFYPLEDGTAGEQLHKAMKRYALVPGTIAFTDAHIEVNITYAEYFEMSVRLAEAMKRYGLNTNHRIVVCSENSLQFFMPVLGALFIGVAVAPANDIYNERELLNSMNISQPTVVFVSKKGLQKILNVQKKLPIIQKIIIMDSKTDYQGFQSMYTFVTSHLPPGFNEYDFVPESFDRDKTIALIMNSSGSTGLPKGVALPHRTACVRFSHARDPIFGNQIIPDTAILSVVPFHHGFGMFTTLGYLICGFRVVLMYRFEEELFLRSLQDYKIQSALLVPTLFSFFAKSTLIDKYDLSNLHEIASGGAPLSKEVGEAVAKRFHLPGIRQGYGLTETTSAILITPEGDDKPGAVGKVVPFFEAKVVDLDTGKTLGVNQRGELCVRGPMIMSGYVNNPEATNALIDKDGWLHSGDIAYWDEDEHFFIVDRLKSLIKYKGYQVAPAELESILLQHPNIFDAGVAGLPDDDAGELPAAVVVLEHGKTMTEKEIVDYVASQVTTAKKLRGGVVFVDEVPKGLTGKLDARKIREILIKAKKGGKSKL

For `COc1ccc(NC(=O)C2CCN(C(=O)c3ncn4c3COC(c3ccccc3)C4)CC2)cc1Cl` (centres unmarked) [NCGC 00449919], the “Thermofluor FLuc, No ATP” value (20.000 °C) was 0.250, the “Thermofluor FLuc, ATP” value (20.000 °C) was 0.934 and the “Thermofluor FLuc, No ATP” value (20.993 °C) was 0.185. For the same compound, the “Thermofluor FLuc, ATP” value (20.993 °C) was 0.955, the “Thermofluor FLuc, No ATP” value (21.987 °C) was 0.201 and the “Thermofluor FLuc, ATP” value (21.987 °C) was 0.975. For the same compound, the “Thermofluor FLuc, No ATP” value (22.980 °C) was 0.152, the “Thermofluor FLuc, ATP” value (22.980 °C) was 0.992 and the “Thermofluor FLuc, No ATP” value (23.974 °C) was 0.098. For the same compound, the “Thermofluor FLuc, ATP” value (23.974 °C) was 1, the “Thermofluor FLuc, No ATP” value (24.967 °C) was 0.101 and the “Thermofluor FLuc, ATP” value (24.967 °C) was 0.999. The “Thermofluor FLuc, No ATP” value (25.960 °C) was 0.104, the “Thermofluor FLuc, ATP” value (25.960 °C) was 0.991 and the “Thermofluor FLuc, No ATP” value (26.954 °C) was 0.059. The “Thermofluor FLuc, ATP” value (26.954 °C) was 0.977, the “Thermofluor FLuc, No ATP” value (27.947 °C) was 0.054 and the “Thermofluor FLuc, ATP” value (27.947 °C) was 0.961. The “Thermofluor FLuc, No ATP” value (28.940 °C) was 0.030, the “Thermofluor FLuc, ATP” value (28.940 °C) was 0.943 and the “Thermofluor FLuc, No ATP” value (29.934 °C) was 0.043. For the same compound, the “Thermofluor FLuc, ATP” value (29.934 °C) was 0.925, the “Thermofluor FLuc, No ATP” value (30.927 °C) was 0.015 and the “Thermofluor FLuc, ATP” value (30.927 °C) was 0.906. The “Thermofluor FLuc, No ATP” value (31.921 °C) was 0.031, the “Thermofluor FLuc, ATP” value (31.921 °C) was 0.886 and the “Thermofluor FLuc, No ATP” value (32.914 °C) was 0.002. For the same compound, the “Thermofluor FLuc, ATP” value (32.914 °C) was 0.862, the “Thermofluor FLuc, No ATP” value (33.907 °C) was 0.008 and the “Thermofluor FLuc, ATP” value (33.907 °C) was 0.832. For the same compound, the “Thermofluor FLuc, No ATP” value (34.901 °C) was 0.005, the “Thermofluor FLuc, ATP” value (34.901 °C) was 0.793 and the “Thermofluor FLuc, No ATP” value (35.894 °C) was 0.014. The “Thermofluor FLuc, ATP” value (35.894 °C) was 0.741, the “Thermofluor FLuc, No ATP” value (36.887 °C) was 0.000 and the “Thermofluor FLuc, ATP” value (36.887 °C) was 0.675. For the same compound, the “Thermofluor FLuc, No ATP” value (37.881 °C) was 0.036, the “Thermofluor FLuc, ATP” value (37.881 °C) was 0.591 and the “Thermofluor FLuc, No ATP” value (38.874 °C) was 0.034. The “Thermofluor FLuc, ATP” value (38.874 °C) was 0.492, the “Thermofluor FLuc, No ATP” value (39.868 °C) was 0.075 and the “Thermofluor FLuc, ATP” value (39.868 °C) was 0.38. The “Thermofluor FLuc, No ATP” value (40.861 °C) was 0.126, the “Thermofluor FLuc, ATP” value (40.861 °C) was 0.264 and the “Thermofluor FLuc, No ATP” value (41.854 °C) was 0.197. The “Thermofluor FLuc, ATP” value (41.854 °C) was 0.155, the “Thermofluor FLuc, No ATP” value (42.848 °C) was 0.295 and the “Thermofluor FLuc, ATP” value (42.848 °C) was 0.067. For the same compound, the “Thermofluor FLuc, No ATP” value (43.841 °C) was 0.412, the “Thermofluor FLuc, ATP” value (43.841 °C) was 0.013 and the “Thermofluor FLuc, No ATP” value (44.835 °C) was 0.542. The “Thermofluor FLuc, ATP” value (44.835 °C) was 0, the “Thermofluor FLuc, No ATP” value (45.828 °C) was 0.677 and the “Thermofluor FLuc, ATP” value (45.828 °C) was 0.03. For the same compound, the “Thermofluor FLuc, No ATP” value (46.821 °C) was 0.764, the “Thermofluor FLuc, ATP” value (46.821 °C) was 0.099 and the “Thermofluor FLuc, No ATP” value (47.815 °C) was 0.849. For the same compound, the “Thermofluor FLuc, ATP” value (47.815 °C) was 0.195, the “Thermofluor FLuc, No ATP” value (48.808 °C) was 0.904 and the “Thermofluor FLuc, ATP” value (48.808 °C) was 0.306. For the same compound, the “Thermofluor FLuc, No ATP” value (50.795 °C) was 0.949, the “Thermofluor FLuc, ATP” value (50.795 °C) was 0.532 and the “Thermofluor FLuc, No ATP” value (51.788 °C) was 1.000. The “Thermofluor FLuc, ATP” value (51.788 °C) was 0.632, the “Thermofluor FLuc, ATP” value (52.782 °C) was 0.721 and the “Thermofluor FLuc, No ATP” value (53.775 °C) was 1.000. The “Thermofluor FLuc, ATP” value (53.775 °C) was 0.796, the “Thermofluor FLuc, No ATP” value (54.768 °C) was 0.991 and the “Thermofluor FLuc, ATP” value (54.768 °C) was 0.857. For the same compound, the “Thermofluor FLuc, No ATP” value (55.762 °C) was 0.972, the “Thermofluor FLuc, ATP” value (55.762 °C) was 0.903 and the “Thermofluor FLuc, No ATP” value (56.755 °C) was 0.954. For the same compound, the “Thermofluor FLuc, ATP” value (56.755 °C) was 0.933, the “Thermofluor FLuc, No ATP” value (57.748 °C) was 0.930 and the “Thermofluor FLuc, ATP” value (57.748 °C) was 0.95. For the same compound, the “Thermofluor FLuc, No ATP” value (58.742 °C) was 0.908, the “Thermofluor FLuc, ATP” value (58.742 °C) was 0.958 and the “Thermofluor FLuc, No ATP” value (59.735 °C) was 0.892. The “Thermofluor FLuc, ATP” value (59.735 °C) was 0.959, the “Thermofluor FLuc, No ATP” value (60.729 °C) was 0.925 and the “Thermofluor FLuc, ATP” value (60.729 °C) was 0.959. The “Thermofluor FLuc, No ATP” value (61.722 °C) was 0.872, the “Thermofluor FLuc, ATP” value (61.722 °C) was 0.958 and the “Thermofluor FLuc, No ATP” value (62.715 °C) was 0.877. For the same compound, the “Thermofluor FLuc, ATP” value (62.715 °C) was 0.96, the “Thermofluor FLuc, No ATP” value (63.709 °C) was 0.837 and the “Thermofluor FLuc, ATP” value (63.709 °C) was 0.963. The “Thermofluor FLuc, No ATP” value (65.695 °C) was 0.837, the “Thermofluor FLuc, ATP” value (65.695 °C) was 0.975 and the “Thermofluor FLuc, No ATP” value (66.689 °C) was 0.789. For the same compound, the “Thermofluor FLuc, ATP” value (66.689 °C) was 0.981, the “Thermofluor FLuc, No ATP” value (68.676 °C) was 0.772 and the “Thermofluor FLuc, ATP” value (68.676 °C) was 0.992. For the same compound, the “Thermofluor FLuc, No ATP” value (69.669 °C) was 0.774, the “Thermofluor FLuc, ATP” value (69.669 °C) was 0.996 and the “Thermofluor FLuc, No ATP” value (70.662 °C) was 0.720. For the same compound, the “Thermofluor FLuc, ATP” value (70.662 °C) was 0.998, the “Thermofluor FLuc, No ATP” value (71.656 °C) was 0.708 and the “Thermofluor FLuc, ATP” value (71.656 °C) was 0.999. For the same compound, the “Thermofluor FLuc, No ATP” value (72.649 °C) was 0.718, the “Thermofluor FLuc, ATP” value (72.649 °C) was 0.999 and the “Thermofluor FLuc, No ATP” value (73.643 °C) was 0.669. The “Thermofluor FLuc, ATP” value (73.643 °C) was 0.998, the “Thermofluor FLuc, No ATP” value (74.636 °C) was 0.675 and the “Thermofluor FLuc, ATP” value (74.636 °C) was 0.997. For the same compound, the “Thermofluor FLuc, No ATP” value (75.629 °C) was 0.640 and the “Thermofluor FLuc, ATP” value (75.629 °C) was 0.995.
